Columns and labels:
Human mGlu2 = Human mGlu2 (Homo sapiens, UniProt Q14416); experiment: mGlu receptor in vitro assay, human mGlu2; assay type: cell-based
Human mGlu3 = Human mGlu3 (Homo sapiens, UniProt Q14832); experiment: mGlu receptor in vitro assay, human mGlu3; assay type: cell-based
Protocol: Human Embryonic Kidney (HEK-293) cell lines co-expressing rat mGlu receptors 2, 3, 4, 6, 7 or 8 and G protein-coupled inwardly-rectifying potassium (GIRK) channels were grown in Growth Media containing 45% DMEM, 45% F-12, 10% FBS, 20 mM HEPES, 2 mM L-glutamine, antibiotic/antimycotic, non-essential amino acids, 700 μg/mL G418, and 0.6 μg/ml puromycin at 37° C. in the presence of 5% CO2. […] All cell culture reagents were purchased from Invitrogen Corp. (Carlsbad, CA) unless otherwise noted. Calcium assays were used to assess activity of compounds at mGlu1 and mGlu5, as previously described in Engers et al (J. Med. Chem. 2009, 52, 4115-4118). Calcium assays at mGlu3 were performed as described for mGlu5 with the exception that TREx293 mGlu3 Gα15 cells were treated with tetracycline at 20 ng/mL for 20 h prior to assay.
Briefly, cells were plated into 384-well, black-walled, clear-bottomed poly-D-lysine-coated plates at a density of 15,000 cells/20 μL/well in DMEM containing 10% dialyzed FBS, 20 mM HEPES, and 100 units/mL penicillin/streptomycin (assay media). Plated cells were incubated overnight at 37° C. in the presence of 5% CO2. The following day, the medium was exchanged from the cells to assay buffer [Hanks' balanced salt solution (Invitrogen) containing 20 mM HEPES, pH 7.3] using an ELX405 microplate washer (BioTek), leaving 20 μL/well, followed by the addition of 20 μL/well FluoZin2-AM (330 nM final concentration) indicator dye (Invitrogen; prepared as a stock in DMSO and mixed in a 1:1 ratio with Pluronic acid F-127) in assay buffer. Cells were incubated for 1 h at room temperature, and the dye exchanged to assay buffer using an ELX405, leaving 20 μL/well. Test compounds were diluted to 2 times their final desired concentration in assay buffer (0.3% DMSO final concentration). Agonists were diluted in thallium buffer [125 mM sodium bicarbonate (added fresh the morning of the experiment), 1 mM magnesium sulfate, 1.8 mM calcium sulfate, 5 mM glucose, 12 mM thallium sulfate, and 10 mM HEPES, pH 7.3] at 5 times the final concentration to be assayed. Cell plates and compound plates were loaded onto a kinetic imaging plate reader (FDSS 6000 or 7000; Hamamatsu Corporation, Bridgewater, NJ). Appropriate baseline readings were taken (10 images at 1 Hz; excitation, 470±20 nm; emission, 540±30 nm) and test compounds were added in a 20 μL volume and incubated for approximately 2.5 min before the addition of 10 μL of thallium buffer with or without agonist. After the addition of agonist, data were collected for approximately an additional 2.5 min. Data were analyzed using Excel (Microsoft Corp, Redmond, WA). The slope of the fluorescence increase beginning 5 s after thallium/agonist addition and ending 15 s after thallium/agonist addition was calculated, corrected to vehicle and maximal agonist control slope values, and plotted in using either XLfit (ID Business Solutions Ltd) or Prism software (GraphPad Software, San Diego, CA) to generate concentration-response curves. Potencies were calculated from fits using a four-point parameter logistic equation. For concentration-response curve experiments, compounds were serially diluted 1:3 into 10-point concentration response curves and were transferred to daughter plates using an Echo acoustic plate reformatter (Labcyte, Sunnyvale, CA). Test compounds were applied and followed by EC20 concentrations of glutamate.

Chain of Human mGlu3 (Q14832 23-879): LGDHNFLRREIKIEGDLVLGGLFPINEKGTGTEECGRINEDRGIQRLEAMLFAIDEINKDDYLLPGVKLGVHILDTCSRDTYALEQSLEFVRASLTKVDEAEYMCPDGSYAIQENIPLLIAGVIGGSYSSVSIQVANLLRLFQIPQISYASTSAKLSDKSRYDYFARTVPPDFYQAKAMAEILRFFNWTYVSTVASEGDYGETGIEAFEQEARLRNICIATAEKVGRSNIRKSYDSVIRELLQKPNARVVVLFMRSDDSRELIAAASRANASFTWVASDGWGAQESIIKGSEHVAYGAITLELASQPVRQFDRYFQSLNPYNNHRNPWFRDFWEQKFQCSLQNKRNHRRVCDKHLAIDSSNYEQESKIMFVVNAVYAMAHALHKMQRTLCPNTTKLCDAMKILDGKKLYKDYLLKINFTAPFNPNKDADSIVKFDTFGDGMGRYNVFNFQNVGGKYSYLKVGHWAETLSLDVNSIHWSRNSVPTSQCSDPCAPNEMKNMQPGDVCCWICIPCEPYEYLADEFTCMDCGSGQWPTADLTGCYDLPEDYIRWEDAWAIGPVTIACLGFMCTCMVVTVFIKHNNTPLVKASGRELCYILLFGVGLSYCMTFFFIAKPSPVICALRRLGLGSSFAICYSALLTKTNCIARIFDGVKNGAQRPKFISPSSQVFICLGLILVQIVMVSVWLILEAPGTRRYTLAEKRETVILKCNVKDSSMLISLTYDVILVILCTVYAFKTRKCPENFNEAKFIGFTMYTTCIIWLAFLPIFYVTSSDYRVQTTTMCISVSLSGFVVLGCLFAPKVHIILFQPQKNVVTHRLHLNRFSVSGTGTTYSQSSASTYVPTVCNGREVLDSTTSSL
Chain of Human mGlu2 (Q14416 19-872): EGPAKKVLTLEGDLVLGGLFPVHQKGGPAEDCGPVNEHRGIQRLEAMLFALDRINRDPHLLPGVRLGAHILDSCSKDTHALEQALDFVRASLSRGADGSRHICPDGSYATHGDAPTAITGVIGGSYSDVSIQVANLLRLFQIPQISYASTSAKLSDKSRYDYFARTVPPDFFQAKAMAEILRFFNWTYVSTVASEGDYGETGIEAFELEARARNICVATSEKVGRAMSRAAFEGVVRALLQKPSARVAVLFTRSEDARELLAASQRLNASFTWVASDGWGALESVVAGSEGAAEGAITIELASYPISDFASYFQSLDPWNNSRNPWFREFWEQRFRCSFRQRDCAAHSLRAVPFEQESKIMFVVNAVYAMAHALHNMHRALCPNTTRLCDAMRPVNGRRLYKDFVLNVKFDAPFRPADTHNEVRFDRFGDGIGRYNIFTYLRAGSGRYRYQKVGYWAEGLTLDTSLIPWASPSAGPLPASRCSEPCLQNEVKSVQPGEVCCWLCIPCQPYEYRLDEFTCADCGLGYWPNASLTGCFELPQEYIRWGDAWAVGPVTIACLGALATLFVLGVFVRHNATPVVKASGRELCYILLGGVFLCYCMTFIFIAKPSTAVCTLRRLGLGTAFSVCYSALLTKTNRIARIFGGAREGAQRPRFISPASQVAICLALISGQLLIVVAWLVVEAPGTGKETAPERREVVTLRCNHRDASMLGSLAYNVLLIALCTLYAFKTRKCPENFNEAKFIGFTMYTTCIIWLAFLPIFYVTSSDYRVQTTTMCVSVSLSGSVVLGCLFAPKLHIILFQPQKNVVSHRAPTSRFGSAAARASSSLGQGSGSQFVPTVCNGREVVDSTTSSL

EC50 (Human mGlu2) [nM]	EC50 (Human mGlu3) [nM]	SMILES
243	327	Cc1c(OCc2nnc(-c3cccc(C(=O)O)c3)o2)ccc(C(=O)CC(C)(C)C)c1O [compound 134, 3-(5-((4-(3,3-Dimethylbutanoyl)-3-hydroxy-2-methylphenoxy)methyl)-1,3,4-oxadiazol-2-yl)benzoic acid]
373	> 30000	COc1ccc(C(=O)O)cc1OCCN(CCOc1ccc(C(=O)CC(C)(C)C)c(O)c1C)S(=O)(=O)c1ccc(C)cc1 [Example 31, 3-[2-({2-[4-(3,3-Dimethylbutanoyl)-3-hydroxy-2-methylphenoxy]ethyl}[(4-methylphenyl)sulfonyl]amino)ethoxy]-4-methoxybenzoic acid]
> 10000	> 30000	COc1ccc(C(=O)O)c(-c2cnc(COc3ccc(C#CCO)c(C)c3C)cn2)c1 [compound 150]
415	995	COc1ccc(C(=O)O)cc1OCCCCCCCCCCOc1ccc(C(=O)CC(C)(C)C)c(O)c1C [Example 28, 3-{10-[4-(3,3-Dimethylbutanoyl)-3-hydroxy-2-methylphenoxy]decyloxy}-4-methoxybenzoic acid]
228	461	Cc1c(OCCCCSc2cccc(C(=O)O)c2)ccc(C(=O)CC(C)(C)C)c1O [compound 80, 3-((4-(4-(3,3-Dimethylbutanoyl)-3-hydroxy-2-methylphenoxy)butyl)thio)benzoic acid]
1170	1600	COc1cccc(C(=O)c2ccc(OCc3cccc(-c4cccc(C(=O)O)c4)c3)c(C)c2O)c1 [compound 62, 3′-((3-Hydroxy-4-(3-methoxybenzoyl)-2-methylphenoxy)methyl)-[1,1′-biphenyl]-3-carboxylic acid]
291	580	Cc1c(OCc2cnc(-c3ccc(C(=O)O)cc3Cl)cn2)ccc(C(=O)CC(C)(C)C)c1O [compound 143, 3-Chloro-4-(5-((4-(3,3-Dimethylbutanoyl)-3-hydroxy-2-methylphenoxy)methyl)pyrazin-2-yl)benzoic acid]
78	117	COc1ccc(C(=O)O)cc1-c1noc(COc2ccc(C(=O)CC(C)(C)C)c(O)c2C)n1 [compound 156, 3-(5-((4-(3,3-Dimethylbutanoyl)-3-hydroxy-2-methylphenoxy)methyl)-1,2,4-oxadiazol-3-yl)-4-methoxybenzoic acid]
48	148	Cc1c(C(=O)O)cccc1-c1noc(COc2ccc(C(=O)CC(C)(C)C)c(O)c2C)n1 [compound 157, 3-(5-((4-(3,3-Dimethylbutanoyl)-3-hydroxy-2-methylphenoxy)methyl)-1,2,4-oxadiazol-3-yl)-2-methylbenzoic acid]
334	1060	COc1ccc(C(=O)O)cc1OCCCCCCCOc1ccc(C(=O)CC(C)(C)C)c(O)c1C [Example 20, 3-{7-[4-(3,3-Dimethylbutanoyl)-3-hydroxy-2-methylphenoxy]heptyloxy}-4-methoxybenzoic acid]
1350	750	COc1ccc(C(=O)O)cc1CCCCCOc1ccc(C(=O)CC(C)(C)C)c(O)c1C [Example 3, 3-(5-(4-(3,3-Dimethylbutanoyl)-3-hydroxy-2-methylphenoxy)pentyl)-4-methoxybenzoic acid]
53	104	COc1c(C(=O)O)cccc1-c1noc(COc2ccc(C(=O)CC(C)(C)C)c(O)c2C)n1 [compound 158, 3-(5-((4-(3,3-Dimethylbutanoyl)-3-hydroxy-2-methylphenoxy)methyl)-1,2,4-oxadiazol-3-yl)-2-methoxybenzoic acid]
445	104	Cc1c(OCc2cnc(-c3ccc(Cl)c(C(=O)O)c3)cn2)ccc(C(=O)CC(C)(C)C)c1O [compound 138, 2-Chloro-5-(5-((4-(3,3-Dimethylbutanoyl)-3-hydroxy-2-methylphenoxy)methyl)pyrazin-2-yl)benzoic acid]
119	> 10000	Cc1c(OCc2nc(-c3cccc(C(=O)O)c3)no2)ccc(C(=O)C2CC2)c1O [compound 77, 3-(5-((4-(Cyclopropanecarbonyl)-3-hydroxy-2-methylphenoxy)methyl)-1,2,4-oxadiazol-3-yl)benzoic acid]
41	1930	COc1c(C(=O)O)cccc1-c1cnc(COc2ccc(C(=O)C3CC3)c(O)c2C)cn1 [compound 78, 3-(5-((4-(Cyclopropanecarbonyl)-3-hydroxy-2-methylphenoxy)methyl)pyrazin-2-yl)-2-methoxybenzoic acid]
882	> 10000	COc1ccc(C(=O)O)cc1OCCCCCCCCOc1ccc(C(=O)CC(C)(C)C)c(O)c1C [Example 18, 3-{8-[4-(3,3-Dimethylbutanoyl)-3-hydroxy-2-methylphenoxy]octyloxy}-4-methoxybenzoic acid]
924	1650	Cc1c(OCc2cccc(-c3cccc(C(=O)O)c3)c2)ccc(C(=O)c2ccc(F)cc2)c1O [compound 74, 3′-((4-(4-Fluorobenzoyl)-3-hydroxy-2-methylphenoxy)methyl)-[1,1′-biphenyl]-3-carboxylic acid]
1750	1080	Cc1c(OCc2cnc(-c3cc(F)cc(C(=O)O)c3)cn2)ccc(C(=O)CC(C)(C)C)c1O [compound 139, 3-(5-((4-(3,3-Dimethylbutanoyl)-3-hydroxy-2-methylphenoxy)methyl)pyrazin-2-yl)-5-fluorobenzoic acid]
729	364	COc1cc(C(=O)O)cc(-c2cnc(COc3ccc(C(=O)CC(C)(C)C)c(O)c3C)cn2)c1 [compound 129, 3-(5-((4-(3,3-Dimethylbutanoyl)-3-hydroxy-2-methylphenoxy)methyl)pyrazin-2-yl)-5-methoxybenzoic acid]
69	133	COc1c(C(=O)O)cccc1-c1ccc(COc2ccc(C(=O)CC(C)(C)C)c(O)c2C)cn1 [compound 153, 3-(5-((4-(3,3-Dimethylbutanoyl)-3-hydroxy-2-methylphenoxy)methyl)pyridin-2-yl)-2-methoxybenzoic acid]
423	3000	Cc1c(SCCCCSc2cccc(C(=O)O)c2)ccc(C(=O)CC(C)(C)C)c1O [compound 82, 3-{4-[4-(3,3-Dimethylbutanoyl)-3-hydroxy-2-methylphenylthio]butylthio}benzoic acid]

SMILES	EC50 (Human mGlu2) [nM]	EC50 (Human mGlu3) [nM]
COc1ccc(C(=O)O)cc1OCCCCOc1ccc(C(=O)c2ccc(C(C)(C)C)cc2)c(O)c1C [compound 76, 3-[4-(4-{[4-(tert-Butyl)phenyl]carbonyl}-3-hydroxy-2-methylphenoxy)butoxy]-4-methoxybenzoic acid]	> 10000	> 10000
COc1ccc(C(=O)O)cc1OCCCCOc1ccc(C(=O)CC(C)(C)C)c(O)c1-c1ccccc1 [compound 131, 3-(4-((5-(3,3-Dimethylbutanoyl)-6-hydroxy-[1,1′-biphenyl]-2-yl)oxy)butoxy)-4-methoxybenzoic acid]	231	1050
COc1ccc(C(=O)c2ccc(OCCCCOc3cc(C(=O)O)ccc3OC)c(C)c2O)cc1 [compound 63, 3-(4-(3-Hydroxy-4-(4-methoxybenzoyl)-2-methylphenoxy)butoxy)-4-methoxybenzoic acid]	507	557

— patent US20250179000A1 (Sanford Burnham Prebys Medical Discovery Institute, priority 2021, published 2025)
